From paper PMC11475570, “Impact of Optimized Ku–DNA Binding Inhibitors on the Cellular and In Vivo DNA Damage Response” (Cancers, 2024)

How the values were obtained:
[1] = target: T1, Ku 70/80 (Homo sapiens, UniProt P12956+P13010); assay: EMSA Ku–DNA binding inhibition; details: 32P-labeled 30-bp duplex DNA, purified Ku 70/80, mean and SD of triplicate
T1 construct: made in house; host or cells: baculovirus-infected Sf9 cells
Procedure: The inhibitory activity of Ku-DBis on Ku-DNA binding was evaluated in vitro using Electrophoretic mobility shift assays (EMSA) with a [^32P]-labeled 30-bp duplex DNA and purified Ku 70/80. Kinase assays were performed to measure the DNA-dependent transfer of [^32P] from γ-[^32P] ATP to a synthetic p53-based peptide substrate, both as previously described. Both EMSA and DNA-PK inhibitor titration assays were performed in triplicate. Data were fit to standard binding curves using GraphPad Prism to determine IC50 values.

[2] = tested on: A549; assay: CCK-8 cell viability, single agent; type: cell-based, Human
Procedure: (§1) Cell metabolism/viability was assessed using a mitochondrial metabolism assay (CCK-8) kit (Cell Counting Kit-8, Cat: CK04, Dojindo Laboratories, Rockville, MD, USA) as previously described. Briefly, cells were seeded at a density of 3 × 10^3 cells per well in 96-well plates and allowed to adhere and stretch for 18–24 h prior to treatment. Cells were pre-treated with Ku-DBi for 24 h before bleomycin treatments. Subsequently, cells were incubated for an additional 48 h at 37 °C after which CCK-8 assay was performed. The absorbance of the formed formazan product in each well was measured at 450 nm and compared to vehicle-treated controls to determine percent cell viability. The results represent the average and SEM of triplicate determinations.

[3] = tested on: H1299; assay: CCK-8 cell viability, single agent; type: cell-based, Human
Procedure: as §1

[4] = tested on: H23; assay: CCK-8 cell viability, single agent; type: cell-based, Human; details: Homo sapiens
Procedure: as §1

[5] = tested on: H460; assay: CCK-8 cell viability, single agent; type: cell-based, Human; details: for IC50: H460, CCK-8, 72 h, mean ± SD
Procedure: as §1

[6] = tested on: MDA-436; assay: CCK-8 cell viability, single agent; type: cell-based, Human; details: Homo sapiens
Procedure: as §1

[7] = tested on: MDA-468; assay: CCK-8 cell viability, single agent; type: cell-based, Human; details: Homo sapiens
Procedure: as §1

[8] = tested on: H460 cells; assay: 3392 and bleomycin combination, CCK-8, SynergyFinder; type: cell-based, Human
Procedure: as §1

[9] = tested on: A549 cells; assay: Clonogenic survival in combination with IR; type: cell-based, Human; details: A549, 2 Gy
Procedure: (§2) NSCLC cells were seeded at 2 × 10^5 cells per well into 24-well plates and grown as monolayers at 37 °C and 5% CO2 in media one day before Ku-DBi or vehicle treatments. After 2 h, cells were placed on ice for 10 min and kept on ice during irradiation with either 2 or 5 Gy of 160 kVp X-rays using a Precision X-ray machine (North Branford, CT, USA) at a dose rate of 0.687 Gy/min. Radiation dosimetry measurements were performed using a Farmer-type ionization chamber (PTW Model N30013, Freiburg, Germany) in conjunction with a Keithley electrometer (Model K602, Cleveland, OH, USA). After irradiation, cells were incubated for 1 h at 37 °C, trypsinized, replated in 100 mm dishes, and incubated at 37 °C in 5% CO2. After 11 days, cells were carefully washed in PBS before fixing and staining in 0.5% crystal violet (Cat: C581-100, Fisher Scientific, Hampton, NH, USA) with 6% glutaraldehyde (Glutaraldehyde solution, 25%. Cat: O2957-1, Fisher Scientific) in PBS for 1 h at RT. The staining solution was removed, and cells were washed with water and air-dried. For clonogenic survival analysis, colonies containing more than 50 cells were manually counted and normalized to vehicle control conditions to determine surviving fractions.

[10] = tested on: H23 cells; assay: Clonogenic survival in combination with IR; type: cell-based, Human
Procedure: as §2

[11] = tested on: Ku wild-type MEFs; assay: Bleomycin sensitization, CCK-8; type: cell-based; details: 20 μM 3392 for 24 h, then bleomycin 48 h
Procedure: (§3) page 20: Supplementary Figure S4. Ku-DBi 3392 sensitivity to bleomycin in wild-type (WT) and Ku 80-null MEFs cells. MEF cells were pre-treated with vehicle or 20 μM 3392 for 24 h and then increasing concentrations of bleomycin for 48 h after which cell viability was determined by CCK-8. Data are presented as the mean and SEM of triplicate determinations. (1 picture or pasted object on this page, not shown here)

[12] = tested on: Ku80-null MEF; assay: Bleomycin sensitization, CCK-8; type: cell-based; details: 20 μM 3392 for 24 h, then bleomycin 48 h
Procedure: as §3

[13] = tested on: MDA-MB-436; assay: Bleomycin-sensitization activity, CCK-8; type: cell-based, Human; details: BRCA1 mutant MDA-MB-436
Procedure: as §1

[14] = tested on: MDA-MB-468; assay: Bleomycin-sensitization activity, CCK-8; type: cell-based, Human; details: BRCA1 wild-type MDA-MB-468
Procedure: as §1

[15] = tested on: MDA-MB-436; assay: Doxorubicin combination, CCK-8; type: cell-based, Human; details: BRCA1 mutant MDA-MB-436, 20 µM 3392 pre-treatment 3 h, doxorubicin 72 h
Procedure: Supplementary Figure S5. Decreased sensitivity to Doxorubicin mediated by Ku-DBi in MDA-436 cells. […] (B) Pre-treatment with vehicle or 20 µM 3392 and media removed after 3 h, prior 72 h doxorubicin treatment after which cell viability was determined by CCK-8. Data are presented as the mean and SEM of triplicate determinations. […]

[16] = tested on: A549 cells; assay: γH2AX single-agent DNA damage (Western blot, immunofluorescence); type: cell-based, Human; details: Supplemental Figure S6
Source text: Supplementary Figure S6. GL-3392 single agent effect on DNA damage in NSCLC.
(A) Western blot analysis from A549 cells nuclear extracts. (B) Densitometric analysis of bands from western blot immunodetection. The original membranes can be found in File S1 (Appendix for Supplementary Figure S6A). (C) γH2AX expression levels dete rmined by Immunofluorescence. IF staining of DAPI nuclear staining (blue) and γH2AX (pS139) (red). Scale bars: 10µm. (D) Quantitation of integrated fluorescence intensity of γH2AX foci represented as the median of 300 nuclei per field. ns: not significant, ****p <0.0001 as calculated by one-way ANOVA with Dunnett’s multiple comparisons test. […]

T1 sequence (P12956 whole entry): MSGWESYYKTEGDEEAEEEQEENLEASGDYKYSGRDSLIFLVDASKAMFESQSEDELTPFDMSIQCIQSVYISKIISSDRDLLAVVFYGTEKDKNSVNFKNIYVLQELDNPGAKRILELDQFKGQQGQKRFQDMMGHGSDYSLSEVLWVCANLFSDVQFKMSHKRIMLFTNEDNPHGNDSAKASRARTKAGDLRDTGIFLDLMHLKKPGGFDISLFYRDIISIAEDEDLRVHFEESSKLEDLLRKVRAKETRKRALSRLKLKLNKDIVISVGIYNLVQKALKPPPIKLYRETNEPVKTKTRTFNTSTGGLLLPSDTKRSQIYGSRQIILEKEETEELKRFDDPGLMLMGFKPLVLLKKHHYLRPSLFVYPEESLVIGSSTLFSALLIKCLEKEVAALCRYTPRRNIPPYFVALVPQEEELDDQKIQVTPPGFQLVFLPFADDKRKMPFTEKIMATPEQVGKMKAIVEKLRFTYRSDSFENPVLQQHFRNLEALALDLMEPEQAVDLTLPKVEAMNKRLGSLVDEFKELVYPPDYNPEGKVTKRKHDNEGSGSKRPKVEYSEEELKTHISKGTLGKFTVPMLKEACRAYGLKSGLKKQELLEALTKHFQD
T1 sequence (P13010 whole entry): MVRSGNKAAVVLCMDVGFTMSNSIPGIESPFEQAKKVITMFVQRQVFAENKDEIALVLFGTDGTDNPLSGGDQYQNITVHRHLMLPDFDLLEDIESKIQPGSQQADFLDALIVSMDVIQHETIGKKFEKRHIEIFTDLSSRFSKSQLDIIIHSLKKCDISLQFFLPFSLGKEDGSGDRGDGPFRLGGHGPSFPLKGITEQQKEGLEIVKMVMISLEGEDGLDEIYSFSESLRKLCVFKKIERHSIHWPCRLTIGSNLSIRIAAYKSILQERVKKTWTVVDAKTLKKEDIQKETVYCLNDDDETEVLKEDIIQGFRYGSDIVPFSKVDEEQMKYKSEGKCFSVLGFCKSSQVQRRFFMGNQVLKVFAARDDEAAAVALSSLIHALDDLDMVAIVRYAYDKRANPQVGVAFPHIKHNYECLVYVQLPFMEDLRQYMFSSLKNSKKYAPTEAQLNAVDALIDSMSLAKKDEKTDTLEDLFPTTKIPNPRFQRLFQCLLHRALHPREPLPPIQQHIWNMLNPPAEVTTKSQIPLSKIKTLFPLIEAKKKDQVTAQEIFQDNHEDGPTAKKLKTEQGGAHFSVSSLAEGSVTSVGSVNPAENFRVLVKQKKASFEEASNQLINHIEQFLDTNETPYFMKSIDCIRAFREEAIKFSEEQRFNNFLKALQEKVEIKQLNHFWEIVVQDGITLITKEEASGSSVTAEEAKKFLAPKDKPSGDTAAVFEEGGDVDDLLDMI

## COc1ccc(-c2ccc(/C=C3\C(=O)N(c4cccc(C(=O)O)c4)c4ccccc43)o2)cc1C(=O)Nc1cccc(OC(F)(F)F)c1 [GL-3392]
[1]
  IC50: 4.15 ± 1.07 µM
[2]; A549
  Cell viability at the highest concentrations assessed: ~50%
[2]; Homo sapiens, A549, 25 µM
  viability at 25 µM: 46.2 ± 3.8%
[2]; Homo sapiens, A549, CCK-8, 72 h, mean ± SD
  IC50: > 50 µM
[3]; H1299
  Cell viability at the highest concentrations assessed: ~ 90%
[3]; Homo sapiens, NCI-H1299, H1299, 25 µM
  viability at 25 µM: 89.9 ± 10.1%
[3]; Homo sapiens, NCI-H1299, H1299, CCK-8, 72 h, mean ± SD
  IC50: > 50 µM
[4]; NCI-H23, 72 h, H23, CCK-8, 72 h, mean ± SD
  IC50: ~8 µM
[4]; NCI-H23, H23, 25 µM
  viability at 25 µM: 12.7 ± 0.7%
[5]
  IC50: 7.7 ± 0.6 µM
[5]; Homo sapiens, NCI-H460, 72 h
  IC50: ~8 µM
[5]; Homo sapiens, NCI-H460, H460, 25 µM
  viability at 25 µM: 12.3 ± 0.6%
[6]; MDA-436, 25 µM
  viability at 25 µM: 43.9 ± 2.6%
[6]; MDA-436, CCK-8, 72 h, mean ± SD
  IC50: 22.2 ± 1.4 µM
[7]; MDA-468, 25 µM
  viability at 25 µM: 29.4 ± 1.3%
[7]; MDA-468, CCK-8, 72 h, mean ± SD
  IC50: 10.4 ± 1.5 µM
[8]; H460, 3392 combined with bleomycin
  Type of interaction with bleomycin (HSA and Bliss models): additive interaction
[8]; Homo sapiens, NCI-H460, H460, bleomycin 0 μM, GL-3392 5 μM, read-out: Response matrix for inhibition
  inhibition at 5 µM: 34%
[8]; Homo sapiens, NCI-H460, H460, bleomycin 0 μM, GL-3392 10 μM, read-out: Response matrix for inhibition
  inhibition at 10 µM: 78.9%
[8]; Homo sapiens, NCI-H460, H460, bleomycin 0 μM, GL-3392 15 μM, read-out: Response matrix for inhibition
  inhibition at 15 µM: 79.8%
[9]
  Sensitivity in combination with IR, clonogenic survival: increased sensitivity when combined with a 2 Gy radiation dose
[10]; ATM-null H23, 2 Gy
  Sensitivity in combination with IR, clonogenic survival: minimal, statistically insignificant effect
[10]; ATM-null H23, 5 Gy
  Sensitivity in combination with IR, clonogenic survival: significantly sensitized
[11]
  Ku-DBi-dependent change in sensitivity to bleomycin: increases in the sensitivity to bleomycin were only observed in Ku wild-type cells
[12]
  Ku-DBi-dependent change in sensitivity to bleomycin: did not increase sensitivity
[13]
  Change in sensitivity to bleomycin: decrease in sensitivity to bleomycin
[14]
  Change in sensitivity to bleomycin: increase in sensitivity
[15]
  Change in doxorubicin sensitivity: decrease in Dox sensitivity
[16]
  Induction of direct DNA damage, single agent: cannot be attributed to induction of direct DNA damage
